The test has as its target human mGlu4 receptor (Homo sapiens (Human), UniProt Q14833). Kind of test: Ca2+ mobilization in vitro assay on recombinant human mGlu4 expressed in HEK293 cells (PAM). The class given is cell-based. The settings on record: for Emax: HEK293, maximal response in % of maximal stimulatory effect of saturating L-AP4, read-out: Eff. (%); for EC50: HEK293 cells, human mGlu4, in presence of EC20 of L-AP4, read-out: EC50 (nM) mGlu4PAM. From the text:
FIG. 1: Illustrates the experimental outline for mGlu4 PAM Ca^2+ mobilization screening assay and the determination of EC50 and % Emax values. […] A depression of the signal observed after addition of the EC20 concentration of L-AP4 was indicative of an inhibitory activity of the test compound.
Determination of EC50 Values Using a Ca2+ Mobilization In Vitro Assay on Recombinant Human mGlu4 Expressed in HEK293 Cells:
A monoclonal HEK-293 cell line stably transfected with a cDNA encoding for the human mGlu4 receptor was generated; for the work with mGlu4 Positive Allosteric Modulators (PAMs), a cell line with low receptor expression levels and low constitutive receptor activity was selected to allow the differentiation of agonistic versus PAM activity. Cells were cultured according to standard protocols (Freshney, 2000) in Dulbecco's Modified Eagle Medium with high glucose supplemented with 1 mM glutamine, 10% (vol/vol) heat-inactivated bovine calf serum, Penicillin/Streptomycin, 50 μg/ml hygromycin and 15 μg/ml blasticidin (all cell culture reagents and antibiotics from Invitrogen, Basel, Switzerland).
About 24 hrs before an experiment, 5×10^4 cells/well were seeded in poly-D-lysine coated, black/clear-bottomed 96-well plates. The cells were loaded with 2.5 μM Fluo-4AM in loading buffer (1×HBSS, 20 mM HEPES) for 1 hr at 37° C. and washed five times with loading buffer. The cells were transferred into a Functional Drug Screening System 7000 (Hamamatsu, Paris, France), and 11 half logarithmic serial dilutions of test compound at 37° C. were added and the cells were incubated for 10-30 min. with on-line recording of fluorescence. Following this pre-incubation step, the agonist (2S)-2-amino-4-phosphonobutanoic acid (L-AP4) was added to the cells at a concentration corresponding to EC20 with on-line recording of fluorescence; in order to account for day-to-day variations in the responsiveness of cells, the EC20 of L-AP4 was determined immediately ahead of each experiment by recording of a full dose-response curve of L-AP4.
Responses were measured as peak increase in fluorescence minus basal (i.e. fluorescence without addition of L-AP4), normalized to the maximal stimulatory effect obtained with saturating concentrations of L-AP4. Graphs were plotted with the % maximal stimulatory using XLfit, a curve fitting program that iteratively plots the data using Levenburg Marquardt algorithm. The single site competition analysis equation used was y=A+((B−A)/(1+((x/C)D))), where y is the % maximal stimulatory effect, A is the minimum y, B is the maximum y, C is the EC50, x is the log 10 of the concentration of the competing compound and D is the slope of the curve (the Hill Coefficient). From these curves the EC50 (drug concentration at which 50% of the maximal receptor activation was achieved), the Hill coefficient as well as the maximal response in % of the maximal stimulatory effect obtained with saturating concentrations of L-AP4 were calculated (see FIG. 1).
In general terms: Calcium flux is commonly read through the fluorescence of an indicator in the cells.

Chain of human mGlu4 receptor (Q14833 33-912): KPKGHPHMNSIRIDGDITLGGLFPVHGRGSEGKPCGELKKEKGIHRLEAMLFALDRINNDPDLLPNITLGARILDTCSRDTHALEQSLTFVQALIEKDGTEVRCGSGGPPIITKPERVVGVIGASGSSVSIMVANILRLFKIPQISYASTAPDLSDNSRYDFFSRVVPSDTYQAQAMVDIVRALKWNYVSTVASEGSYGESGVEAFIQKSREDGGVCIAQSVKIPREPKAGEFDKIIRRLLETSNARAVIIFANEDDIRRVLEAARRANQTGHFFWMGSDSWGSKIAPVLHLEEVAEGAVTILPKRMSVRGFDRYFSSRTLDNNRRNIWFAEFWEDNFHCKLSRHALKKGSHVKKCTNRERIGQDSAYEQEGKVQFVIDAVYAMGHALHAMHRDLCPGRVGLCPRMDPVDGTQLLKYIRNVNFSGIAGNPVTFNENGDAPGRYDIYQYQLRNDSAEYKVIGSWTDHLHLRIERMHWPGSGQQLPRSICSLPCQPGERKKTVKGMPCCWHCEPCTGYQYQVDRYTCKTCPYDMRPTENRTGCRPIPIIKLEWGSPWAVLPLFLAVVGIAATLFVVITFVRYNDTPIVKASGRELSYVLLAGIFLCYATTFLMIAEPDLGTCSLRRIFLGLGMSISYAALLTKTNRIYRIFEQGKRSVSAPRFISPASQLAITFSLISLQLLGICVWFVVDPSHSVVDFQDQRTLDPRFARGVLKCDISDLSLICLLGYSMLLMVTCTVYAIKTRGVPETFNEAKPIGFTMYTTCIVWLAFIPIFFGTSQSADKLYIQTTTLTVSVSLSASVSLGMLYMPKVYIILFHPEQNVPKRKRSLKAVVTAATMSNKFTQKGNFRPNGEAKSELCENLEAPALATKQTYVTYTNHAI

Consider `Cc1nccc(N2CCN3C(=O)N(c4c(F)cc(C#Cc5ccccc5)cc4F)C(=O)CC3(C)C2=O)n1` (racemic) [Example 30, (9aRS)-7-[2,6-difluoro-4-(2-phenylethynyl)phenyl]-9a-methyl-2-(2-methylpyrimidin-4-yl)-4,9-dihydro-3H-pyrazino[1,2-c]pyrimidine-1,6,8-trione], for which the Emax was determined as 101% and the EC50 is 113 nM.
The like results for `CC12CC(=O)N(c3c(F)cc(C#Cc4ccccc4)cc3F)C(=O)N1CCN(c1cnccn1)C2=O` (racemic) [Example 32, (9aRS)-7-[2,6-difluoro-4-(2-phenylethynyl)phenyl]-9a-methyl-2-pyrazin-2-yl-4,9-dihydro-3H-pyrazino[1,2-c]pyrimidine-1,6,8-trione] were, in that order, 112% and 88 nM.
For the compound `Cc1cncc(N2CCN3C(=O)N(c4c(F)cc(C#Cc5ccccc5)cc4F)C(=O)CC3(C)C2=O)n1` (racemic) [Example 34, (9aRS)-7-[2,6-difluoro-4-(2-phenylethynyl)phenyl]-9a-methyl-2-(6-methylpyrazin-2-yl)-4,9-dihydro-3H-pyrazino[1,2-c]pyrimidine-1,6,8-trione], the Emax was 114% and the EC50 worked out at 148 nM.
The like results for `CC12CC(=O)N(c3c(F)cc(C#Cc4ccccc4)cc3F)C(=O)N1CCN(c1cccnn1)C2=O` (racemic) [Example 46, (9aRS)-7-[2,6-difluoro-4-(2-phenylethynyl)phenyl]-9a-methyl-2-pyridazin-3-yl-4,9-dihydro-3H-pyrazino[1,2-c]pyrimidine-1,6,8-trione] were, in that order, 106% and 132 nM.
The like results for `Cc1ccc(N2CCN3C(=O)N(c4c(F)cc(C#Cc5ccccc5)cc4F)C(=O)CC3(C)C2=O)nn1` (racemic) [Example 48, (9aRS)-7-[2,6-difluoro-4-(2-phenylethynyl)phenyl]-9a-methyl-2-(6-methylpyridazin-3-yl)-4,9-dihydro-3H-pyrazino[1,2-c]pyrimidine-1,6,8-trione] were, in that order, 120% and 198 nM.
The like results for `Cn1ncc(N2CCN3C(=O)N(c4c(F)cc(C#Cc5ccccc5)cc4F)C(=O)CC3(C)C2=O)cc1=O` (racemic) [Example 51, (9aRS)-7-[2,6-difluoro-4-(2-phenylethynyl)phenyl]-9a-methyl-2-(1-methyl-6-oxo-pyridazin-4-yl)-4,9-dihydro-3H-pyrazino[1,2-c]pyrimidine-1,6,8-trione] were, in that order, 120% and 191 nM.
`CC12CC(=O)N(c3c(F)cc(C#Cc4ccccc4)cc3F)C(=O)N1CCN(c1nccs1)C2=O` (racemic) [Example 52, (9aRS)-7-[2,6-difluoro-4-(2-phenylethynyl)phenyl]-9a-methyl-2-thiazol-2-yl-4,9-dihydro-3H-pyrazino[1,2-c]pyrimidine-1,6,8-trione]: the Emax amounted to 97% and the EC50 was 113 nM.
On to `Cc1cnc(N2CCN3C(=O)N(c4c(F)cc(C#Cc5ccccc5)cc4F)C(=O)CC3(C)C2=O)s1` (racemic) [Example 53, (9aRS)-7-[2,6-difluoro-4-(2-phenylethynyl)phenyl]-9a-methyl-2-(5-methylthiazol-2-yl)-4,9-dihydro-3H-pyrazino[1,2-c]pyrimidine-1,6,8-trione], for which the Emax was 100% and the EC50 stood at 88 nM.
For `Cc1csc(N2CCN3C(=O)N(c4c(F)cc(C#Cc5ccccc5)cc4F)C(=O)CC3(C)C2=O)n1` (racemic) [Example 54, (9aRS)-7-[2,6-difluoro-4-(2-phenylethynyl)phenyl]-9a-methyl-2-(4-methylthiazol-2-yl)-4,9-dihydro-3H-pyrazino[1,2-c]pyrimidine-1,6,8-trione], the Emax was 97% and the EC50 came out at 48 nM.
The like results for `CC12CC(=O)N(c3c(F)cc(C#Cc4ccccc4)cc3F)C(=O)N1CCN(c1nc(C#N)cs1)C2=O` (racemic) [Example 55, 2-[(9aRS)-7-[2,6-difluoro-4-(2-phenylethynyl)phenyl]-9a-methyl-1,6,8-trioxo-4,9-dihydro-3H-pyrazino[1,2-c]pyrimidin-2-yl]thiazole-4-carbonitrile] were, in that order, 94% and 77 nM.
The like results for `CC12CC(=O)N(c3c(F)cc(C#Cc4ccccc4)cc3F)C(=O)N1CCN(c1nc(C(F)(F)F)cs1)C2=O` (racemic) [Example 56, (9aRS)-7-[2,6-difluoro-4-(2-phenylethynyl)phenyl]-9a-methyl-2-[4-(trifluoromethyl)thiazol-2-yl]-4,9-dihydro-3H-pyrazino[1,2-c]pyrimidine-1,6,8-trione] were, in that order, 88% and 166 nM.
The like results for `CC12CC(=O)N(c3c(F)cc(C#Cc4ccccc4)cc3F)C(=O)N1CCN(c1ncc(C(F)(F)F)s1)C2=O` (racemic) [Example 57, (9aRS)-7-[2,6-difluoro-4-(2-phenylethynyl)phenyl]-9a-methyl-2-[5-(trifluoromethyl)thiazol-2-yl]-4,9-dihydro-3H-pyrazino[1,2-c]pyrimidine-1,6,8-trione] were, in that order, 103% and 108 nM.
As for `Cn1cnc(N2CCN3C(=O)N(c4c(F)cc(C#Cc5ccccc5)cc4F)C(=O)CC3(C)C2=O)c1` (racemic) [Example 58, (9aRS)-7-[2,6-difluoro-4-(2-phenylethynyl)phenyl]-9a-methyl-2-(1-methylimidazol-4-yl)-4,9-dihydro-3H-pyrazino[1,2-c]pyrimidine-1,6,8-trione], the Emax came out at 91% and the EC50 was determined as 214 nM.
The like results for `Cc1cn(C)c(N2CCN3C(=O)N(c4c(F)cc(C#Cc5ccccc5)cc4F)C(=O)CC3(C)C2=O)n1` (racemic) [Example 59, (9aRS)-7-[2,6-difluoro-4-(2-phenylethynyl)phenyl]-2-(1,4-dimethylimidazol-2-yl)-9a-methyl-4,9-dihydro-3H-pyrazino[1,2-c]pyrimidine-1,6,8-trione] were, in that order, 107% and 104 nM.
Regarding `Cc1nc(N2CCN3C(=O)N(c4c(F)cc(C#Cc5ccccc5)cc4F)C(=O)CC3(C)C2=O)cn1C` (racemic) [Example 60, (9aRS)-7-[2,6-difluoro-4-(2-phenylethynyl)phenyl]-2-(1,2-dimethylimidazol-4-yl)-9a-methyl-4,9-dihydro-3H-pyrazino[1,2-c]pyrimidine-1,6,8-trione], the Emax was found to be 137% and the EC50 amounted to 145 nM.
The like results for `Cn1ccc(N2CCN3C(=O)N(c4c(F)cc(C#Cc5ccccc5)cc4F)C(=O)CC3(C)C2=O)n1` (racemic) [Example 62, (9aRS)-7-[2,6-difluoro-4-(2-phenylethynyl)phenyl]-9a-methyl-2-(1-methylpyrazol-3-yl)-4,9-dihydro-3H-pyrazino[1,2-c]pyrimidine-1,6,8-trione] were, in that order, 112% and 149 nM.
As to `Cn1nccc1N1CCN2C(=O)N(c3c(F)cc(C#Cc4ccccc4)cc3F)C(=O)CC2(C)C1=O` (racemic) [Example 64, (9aRS)-7-[2,6-difluoro-4-(2-phenylethynyl)phenyl]-9a-methyl-2-(2-methylpyrazol-3-yl)-4,9-dihydro-3H-pyrazino[1,2-c]pyrimidine-1,6,8-trione], the Emax came to 155% and the EC50 amounted to 125 nM.
The like results for `Cc1cc(N2CCN3C(=O)N(c4c(F)cc(C#Cc5ccccc5)cc4F)C(=O)CC3(C)C2=O)n(C)n1` (racemic) [Example 66, (9aRS)-7-[2,6-difluoro-4-(2-phenylethynyl)phenyl]-2-(2,5-dimethylpyrazol-3-yl)-9a-methyl-4,9-dihydro-3H-pyrazino[1,2-c]pyrimidine-1,6,8-trione] were, in that order, 142% and 85 nM.
The like results for `Cn1cc(N2CCN3C(=O)N(c4c(F)cc(C#Cc5ccccc5)cc4F)C(=O)CC3(C)C2=O)cn1` (racemic) [Example 67, (9aRS)-7-[2,6-difluoro-4-(2-phenylethynyl)phenyl]-9a-methyl-2-(1-methylpyrazol-4-yl)-4,9-dihydro-3H-pyrazino[1,2-c]pyrimidine-1,6,8-trione] were, in that order, 129% and 113 nM.

The EC50 is the concentration giving half of the maximal effect.

The values are drawn from patent publication US10011607B2, “Ethynyl derivatives” (Hoffmann-La Roche Inc., priority 2015, dated 2018).
